Results taken from patent US4302535A, “Assay for mutagenesis in heterozygous diploid human lymphoblasts” (Massachusetts Institute of Technology, priority 1979, dated 1981).

Legend:
TK6 cells [1] = test: Mutagenicity of polyaromatic hydrocarbons, trifluorothymidine resistance (Example 8, Table 4); conditions: conclusion from plots and tables
Description: Three polyaromatic hydrocarbons derived from kerosine soot were examined for mutagenicity.
Error bars are the standard deviation of the mean.
For perylene, TK6 cells were treated in duplicate with perylene for 3 hours in the presence of 5% (v/v) aroclor-induced rat liver post-mitochondrial supernatant.

TK6 cell line = test: Mutation assay employing TK6 cell line: induction of TFTdR-resistant mutants (Example 2, Table 1); type: cell-based, human
Description: One cell line, TK6, isolated in Example 1, was maintained in spinner culture at 37° C. with a doubling time of approximately 18 hours. Approximately 10^7 cells (4×10^5 /ml) were treated with either BMS (1 mM) of ICR-191 (0.25 μg/ml and 0.50 μg/ml) for 24 hours. After treatment, the cells were centrifuged and resuspended in fresh medium at a concentration of 3×10^5 /ml. Dilutions to 3×10^5 /ml were made daily.
At various times after treatment, duplicate aliquots of 4×10^6 cells were centrifuged and resuspended in 10 ml of RPMI containing 20% FCS, 100 μ/ml penicillin, and 0.25% agarose (plating agar). To determine the plating efficiency of the culture, a […] sample of the suspension containing 4000 cells was added to 5 ml of plating agar and layered over 5 ml prejelled layer of the same medium in a 100 mm petri dish. […] The suspension was then plated in two 5 ml aliquots, each layered over a prejelled layer of plating agar in a 100 mm petri dish (final TFTdR concentration=1 μg/ml). The plates were fed the following day with 3 ml of medium.
The plates were counted after 7-10 days in a 37° C., 5% CO2, humidified incubator.

[2] = tested on: TK6 cells and trifluorothymidine-resistant mutants; test: Reconstruction experiment: toxicity of BMS to TK6 and mutants (Example 7, FIG. 5); type: cell-based, human; conditions: 24 hours exposure; relative surviving fraction
Description: TK6 cells were exposed to BMS for 24 hours. After treatment, the relative surviving fraction was determined by plating in micro wells.

[3] = tested on: trifluorothymidine-resistant TK6 mutant clones and TK6; test: Growth of trifluorothymidine-resistant mutants in various media (Example 4, Table 2); type: cell-based, human; set-up: key to T2 - F3 TdR (doubling time): NG means no growth was observed in 3 days; conditions: F3 TdR 1.0 μg/ml
Description: Growth experiments were performed approximately three weeks later, in 25 cm^2 […] total volume. […] RPMI is normal medium with 15% fetal calf serum. […] CHAT contained 1×10^-5 M cytidine, 2×10^-4 M hypoxanthine, 2×10^-7 M aminopterin, and 1.75×10^-5 M thymidine.

TK6 cells [4] = test: Optimization of selective agent concentration (Example 6, FIG. 4); type: cell-based, human; conditions: 0.33 μg/ml through 10 μg/ml; microtiter plates, two weeks
Excerpt: FIG. 4 is a plot of the data obtained wherein each point is the average of two independent platings.

[5] = tested on: trifluorothymidine-resistant TK6 mutant clones; test: Plating efficiency of induced mutants in trifluorothymidine (Example 6, Table 3); type: cell-based, human
Excerpt: The effect of dead TK6 cells on the expression of mutants growing in microtiter plates was also studied.

TK6 cells [6] = conditions: induced by BMS (3 mM, 2 hours), 5 μg/ml 6-thioguanine
[7] = 1 mM × 24 Hrs, day 1 post-treatment
[8] = 1 mM × 24 Hrs, day 3 post-treatment
[9] = 1 mM × 24 Hrs, day 5 post-treatment
[10] = 0.25 μg/ml × 24 Hrs, day 0 post-treatment
[11] = 0.25 μg/ml × 24 Hrs, day 2 post-treatment
[12] = 0.25 μg/ml × 24 Hrs, day 4 post-treatment
[13] = 0.5 μg/ml × 24 Hrs, day 0 post-treatment
[14] = 0.5 μg/ml × 24 Hrs, day 2 post-treatment
[15] = 0.5 μg/ml × 24 Hrs, day 4 post-treatment

Compound: c1cc2cccc3c4cccc5cccc(c(c1)c23)c54 [perylene]
- mutagenic activity for these human cells (TK6 cells [1]): inactive

Compound: CCCCOS(C)(=O)=O [BMS, butylmethane sulfonate]
- Observed Mutants per 4 × 10^6 Cells (TK6 cell line; [7]): 132
- Plating Efficiency (TK6 cell line; [7]): 0.094
- Observed Mutants per 4 × 10^6 Cells (TK6 cell line; [8]): 275
- Plating Efficiency (TK6 cell line; [8]): 0.15
- Observed Mutants per 4 × 10^6 Cells (TK6 cell line; [9]): 387
- Plating Efficiency (TK6 cell line; [9]): 0.23
- toxicity to TK6 and a mixture of mutants or a single mutant clone [2]: equally toxic

Compound: O=c1[nH]c(=O)n([C@H]2C[C@H](O)[C@@H](CO)O2)cc1C(F)(F)F [trifluorothymidine]
- T2 - F3 TdR (doubling time) ([3]; TK6): NG
- growth of mutants in F3 TdR ([3]; all mutants): all mutants grew well
- T2 - F3 TdR (doubling time) ([3]; mutant BMS-2): 18.4
- T2 - F3 TdR (doubling time) ([3]; mutant BMS-3): 19.2
- T2 - F3 TdR (doubling time) ([3]; mutant BMS-4): 17.7
- T2 - F3 TdR (doubling time) ([3]; mutant BMS-5): 19.7
- T2 - F3 TdR (doubling time) ([3]; mutant ICR-1): 18.6
- T2 - F3 TdR (doubling time) ([3]; mutant ICR-2): 21.2
- observed mutant fraction of an untreated culture versus trifluorothymidine concentration (TK6 cells [4]): no difference in the observed mutant fraction
- PE in RPMI - F3 TdR ([5]; mutant BMS-2): 0.09
- PE in RPMI-F3 TdR with 40,000 TK6/well ([5]; mutant BMS-2): 0.09
- PE in RPMI - F3 TdR ([5]; mutant BMS-3): 0.21
- PE in RPMI-F3 TdR with 40,000 TK6/well ([5]; mutant BMS-3): 0.17
- PE in RPMI - F3 TdR ([5]; mutant BMS-4): 0.11
- PE in RPMI-F3 TdR with 40,000 TK6/well ([5]; mutant BMS-4): 0.15
- PE in RPMI - F3 TdR ([5]; mutant BMS-5): 0.29
- PE in RPMI-F3 TdR with 40,000 TK6/well ([5]; mutant BMS-5): 0.31
- PE in RPMI - F3 TdR ([5]; mutant ICR-1): 0.21
- PE in RPMI-F3 TdR with 40,000 TK6/well ([5]; mutant ICR-1): 0.21
- PE in RPMI - F3 TdR ([5]; mutant ICR-2): 0.09
- PE in RPMI-F3 TdR with 40,000 TK6/well ([5]; mutant ICR-2): 0.10

Compound: COc1ccc2nc3cc(Cl)ccc3c(NCCCNCCCl)c2c1 [ICR-191]
- Observed Mutants per 4 × 10^6 Cells (TK6 cell line; [10]): 26
- Plating Efficiency (TK6 cell line; [10]): 0.25
- Observed Mutants per 4 × 10^6 Cells (TK6 cell line; [11]): 139
- Plating Efficiency (TK6 cell line; [11]): 0.26
- Observed Mutants per 4 × 10^6 Cells (TK6 cell line; [12]): 126
- Plating Efficiency (TK6 cell line; [12]): 0.27
- Observed Mutants per 4 × 10^6 Cells (TK6 cell line; [13]): 55
- Plating Efficiency (TK6 cell line; [13]): 0.24
- Observed Mutants per 4 × 10^6 Cells (TK6 cell line; [14]): 229
- Plating Efficiency (TK6 cell line; [14]): 0.25
- Observed Mutants per 4 × 10^6 Cells (TK6 cell line; [15]): 182
- Plating Efficiency (TK6 cell line; [15]): 0.20

Compound: Nc1nc2nc[nH]c2c(=S)[nH]1 [6-thioguanine]
- phenotypic expression time of 6-thioguanine resistance (TK6 cells [6]): 5 to 6 days

Compound: c1ccc2c(c1)-c1cccc3cccc-2c13 [fluoranthene]
- mutagenic activity for these human cells (TK6 cells [1]): active as mutagens
